Experiments:
[1] = test system: MDA-MB-231 human breast adenocarcinoma cell line; experiment: Sulforhodamine B antiproliferative assay, MDA-MB-231; format: cell-based; conditions: MDA-MB-231, read-out: IC50 MDA-MB-231, mean ± SEM
[2] = test system: DU-145 prostate cancer cell line; experiment: Sulforhodamine B antiproliferative assay, DU-145; format: cell-based; conditions: Homo sapiens, DU-145, read-out: IC50 DU-145, mean ± SEM
[3] = test system: A549 lung cancer cell line; experiment: Sulforhodamine B antiproliferative assay, A549; format: cell-based; conditions: Homo sapiens, A549, read-out: IC50 A549, mean ± SEM
[4] = test system: HeLa cervical cancer cell line; experiment: Sulforhodamine B antiproliferative assay, HeLa; format: cell-based; conditions: Homo sapiens, read-out: IC50 HeLa, mean ± SEM
[5] = test system: HEK-293 primary human embryonic kidney cell line; experiment: Sulforhodamine B assay, control cell line HEK-293; format: cell-based; conditions: HEK293, read-out: IC50 HEK-293, mean ± SEM, normal control cells
DU-145 cells = experiment: Immunoblot of apoptotic proteins; format: cell-based, human; conditions: DU-145, immunoblot, vs vehicle control
HeLa cells = conditions: read-out: IC50 HeLa (reported literature value); cited from earlier work

Row | IC50 [1] | IC50 [2] | IC50 [3] | IC50 [4] | Molecule | IC50 [5] | Annexin V protein expression (DU-145 cells) | BAX protein expression (DU-145 cells) | IC50 (HeLa cells)
1 | 8 ± 0.4 µM | 2 ± 0.8 µM | 0.5 ± 0.03 µM | 26 ± 3 µM | CC(O)[C@@H]1CCCN1C(=O)[C@@H]1CCCN1C(=O)OC(C)(C)C (mixture of isomers) [Compound 22, (2S)-tert-Butyl 2-((2S)-2-(1-Hydroxyethyl)pyrrolidine-1-carbonyl)pyrrolidine-1-carboxylate] | 3390 ± 123 µM |  |  | 
2 | 164 ± 20 µM | 123 ± 20 µM | 167 ± 12 µM | 122 ± 14 µM | C#CCCCC[C@H](C)C[C@@H](C)C(=O)O [Compound 2, (2R,4S)-2,4-Dimethyldec-9-ynoic Acid] | 259 ± 35 µM |  |  | 
3 | 102 ± 14 µM | 188 ± 29 µM | 158 ± 15 µM | 160 ± 10 µM | C#CCCCC[C@H](C)C[C@@H](C)C(=O)N1C(=O)OC[C@H]1Cc1ccccc1 [Compound 17, (R)-4-Benzyl-3-((2R,4S)-2,4-dimethyldec-9-ynoyl)oxazolidin-2-one] | 293 ± 16 µM |  |  | 
4 | 3 ± 0.1 µM | 1 ± 0.9 µM | 5 ± 0.4 µM | 5 ± 1 µM | CC(=O)[C@@H]1CCCN1C(=O)[C@@H]1CCCN1C(=O)OC(C)(C)C [Compound 21, tert-Butyl(S)-2-((S)-2-acetylpyrrolidine-1-carbonyl)pyrrolidine-1-carboxylate] | 5440 ± 245 µM |  |  | 
5 | 1 ± 0.1 µM | 0.5 ± 0.2 µM | 1 ± 0.1 µM |  | COc1cccc2c1C(=O)c1c(O)c3c(c(O)c1C2=O)C[C@@](O)(C(=O)CO)C[C@@H]3O[C@H]1C[C@H](N)[C@H](O)[C@H](C)O1 [doxorubicin, reference compound] | 39 ± 2 µM | highly expressed | highly expressed | 
6 |  |  |  |  | jahanyne |  |  |  | 1.8 µM

From paper PMC6045489 (ACS Omega, 2018)
